Biological target: T1, wildtype HIV-1 protease (Human immunodeficiency virus type 1 group M subtype B, UniProt P04585)
T1 construct: preincubated with the HIV-1 protease (wild type) enzyme in assay buffer; made in house; host or cells: Escherichia coli
Test: Inhibition of microbial expressed HIV protease (Pepcleav)
Assay type: biochemical
Conditions: wild type HIV-1 protease expressed in E. coli, 20 pM enzyme, 400 micromolar peptide substrate, pH 5.5, LC-MS readout; mean of at least two independent experiments
How it was run: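 E. coli-expressed wild-type enzyme, 20 pM final, preincubated with inhibitor for 30 min at room temperature in 50 mM sodium acetate pH 5.5, 100 mM NaCl, 0.1% BSA. Reaction ran 1 h at 30 °C with 400 μM Val-Ser-Gln-Asn-(β-naphthyl)Ala-Pro-Ile-Val, then was quenched with formic acid. Cleavage product quantified by LC-MS/MS peak area, with indinavir as internal standard.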

SMILES | IC50 [nM]
C[C@H]1O[C@H](COc2c(F)cncc2NC(=O)[C@@H](N)C(c2ccc(F)cc2)c2ccc(F)cc2)CN[C@@H]1COC(N)=O [Example 52, N-[4-({(2S,5R,6R)-5-[(carbamoyloxy)methyl]-6-methylmorpholin-2-yl}methoxy)-5-fluoropyridin-3-yl]-4-fluoro-β-(4-fluorophenyl)-L-phenylalaninamide] | 52
C[C@@H]1O[C@H](CCc2c(F)cncc2NC(=O)[C@@H](N)C(c2ccc(F)cc2)c2ccc(F)cc2)CN[C@@H]1COC(N)=O [Example 53, N-[4-(2-{(2R,5R,6S)-5-[(carbamoyloxy)methyl]-6-methylmorpholin-2-yl}ethyl)-5-fluoropyridin-3-yl]-4-fluoro-β-(4-fluorophenyl)-L-phenylalaninamide] | 25
C[C@@H]1O[C@H](CCc2c(F)cncc2NC(=O)[C@@H](N)C(c2ccc(F)cc2)c2ccc(F)cc2)CN[C@@H]1COC(=O)NCC(F)(F)F [Example 54, 4-fluoro-N-(5-fluoro-4-{2-[(2R,5R,6S)-6-methyl-5-({[(2,2,2-trifluoroethyl)carbamoyl]oxy}methyl)morpholin-2-yl]ethyl}pyridin-3-yl)-β-(4-fluorophenyl)-L-phenylalaninamide] | 30
C[C@H]1O[C@H](CCc2c(F)cccc2NC(=O)[C@@H](N)C(c2ccc(F)cc2)c2ccc(F)cc2)CN[C@@H]1COC(=O)NCc1ccc(F)cc1 [Example 56, 4-fluoro-N-(3-fluoro-2-{2-[(2R,5R,6R)-5-({[(4-fluorobenzyl)carbamoyl]oxy}methyl)-6-methylmorpholin-2-yl]ethyl}phenyl)-β-(4-fluorophenyl)-L-phenylalaninamide] | 7
C[C@H]1O[C@H](CCc2c(F)cncc2NC(=O)[C@@H](N)C(c2ccc(F)cc2)c2ccc(F)cc2)CN[C@@H]1COC(=O)NCC(F)(F)F [Example 57, 4-fluoro-N-(5-fluoro-4-{2-[(2R,5R,6R)-6-methyl-5-({[(2,2,2-trifluoroethyl)carbamoyl]oxy}methyl)morpholin-2-yl]ethyl}pyridin-3-yl)-β-(4-fluorophenyl)-L-phenylalaninamide] | 59
CC(C)[C@@H](NC(=O)OC[C@H]1NC[C@@H](CCc2c(F)cccc2NC(=O)[C@@H](N)C(c2ccc(F)cc2)c2ccc(F)cc2)O[C@H]1C)c1ccc(F)cc1 [Example 58, 4-fluoro-N-[3-fluoro-2-(2-{(2R,5R,6S)-5-[({[(1R)-1-(4-fluorophenyl)-2-methylpropyl]carbamoyl}oxy)methyl]-6-methylmorpholin-2-yl}ethyl)phenyl]-β-(4-fluorophenyl)-L-phenylalaninamide] | 6.9
C[C@@H]1O[C@H](CCc2c(F)cccc2NC(=O)[C@@H](N)C(c2ccc(F)cc2)c2ccc(F)cc2)CN[C@@H]1COC(=O)N[C@@H](c1ccc(F)cc1)C1CC1 [Example 59, N-[2-(2-{(2R,5R,6S)-5-[({[(R)-cyclopropyl(4-fluorophenyl)methyl]carbamoyl}oxy)methyl]-6-methylmorpholin-2-yl}ethyl)-3-fluorophenyl]-4-fluoro-β-(4-fluorophenyl)-L-phenylalaninamide] | 17
N[C@H](C(=O)Nc1cccc(F)c1OC[C@@H]1CN[C@@H]2c3ccccc3C[C@@H]2O1)C(c1ccccc1)c1ccccc1 [Example 60, N-{3-fluoro-2-[(2S,4aR,9aS)-2,3,4,4a,9,9a-hexahydroindeno [2,1-b][1,4]oxazin-2-ylmethoxy]phenyl}-β-phenyl-L-phenylalaninamide] | 610
C[C@@H]1O[C@H](CCc2c(F)cccc2NC(=O)[C@@H](N)C(c2ccc(F)cc2)c2ccc(F)cc2)CN[C@@H]1COC(=O)N[C@H](C)C(F)(F)F [Example 61, 4-fluoro-N-[3-fluoro-2-(2-{(2R,5R,6S)-6-methyl-5-[({[(1R)-2,2,2-trifluoro-1-methylethyl]carbamoyl}oxy)methyl]morpholin-2-yl}ethyl)phenyl]-β-(4-fluorophenyl)-L-phenylalaninamide] | 27
O=C(CC(c1ccc(F)cc1)c1ccc(F)cc1)Nc1cccc(F)c1CC[C@@H]1CN[C@H](CO)[C@@H](COC(=O)NCC(F)(F)F)O1 [Example 62] | 170
N[C@H](C(=O)Nc1cccc(F)c1CC[C@@H]1CN[C@H](CO)[C@@H](COC(=O)NCC(F)(F)F)O1)C(c1ccc(F)cc1)c1ccc(F)cc1 [Example 63, 4-fluoro-N-(3-fluoro-2-{2-[(2R,5R,6S)-5-(hydroxymethyl)-6-({[(2,2,2-trifluoroethyl)carbamoyl]oxy}methyl)morpholin-2-yl]ethyl}phenyl)-β-(4-fluorophenyl)-L-phenylalaninamide] | 130

— patent publication US9834526B2 (MERCK SHARP & DOHME CORP., priority 2013, dated 2017)
